This note sets out measurements from the NIST ThermoML archive (doi:10.1016/j.jct.2015.08.033).

The conditions of data set [1]: 100 kPa, Liquid; for speed of sound: Frequency=3 MHz, Sing-around technique in a fixed-path interferometer; for mass density: Vibrating tube method.
The nature of data set [2]: mn = molality of the nth substance listed, in mol/kg. The settings on record: 100 kPa, Liquid, m2 = 0; for speed of sound: Frequency=3 MHz, Sing-around technique in a fixed-path interferometer; for mass density: Vibrating tube method.

± gives the expanded uncertainty stated by the source.

Take `CC(=O)N(C)C` [N,N-dimethylethanamide]: the speed of sound (commonly how fast a sound wave travels through the sample) in data set [1] (298.15 K) is 1455.8 ± 1.3 m/s; in data set [1] (303.15 K) it was 1436 ± 1.3 m/s; in data set [1] (308.15 K) it was 1416.1 ± 1.3 m/s; in data set [1] (313.15 K), 1396.5 ± 1.3 m/s; in data set [1] (318.15 K), 1376.9 ± 1.3 m/s. In addition, the mass density (usually the mass of a sample divided by its volume) in data set [1] (298.15 K) is 936.281 ± 0.14 kg/m3; in data set [1] (303.15 K), 931.672 ± 0.14 kg/m3; in data set [1] (308.15 K) it was 927.055 ± 0.14 kg/m3; in data set [1] (313.15 K), 922.422 ± 0.14 kg/m3; in data set [1] (318.15 K), 917.788 ± 0.14 kg/m3.
In the case of `CC(=O)N(C)C` [N,N-dimethylethanamide] + O=S(=O)([O-])C(F)(F)F.O=S(=O)([O-])C(F)(F)F.[Ca+2], the speed of sound in data set [2] (298.15 K) was determined as 1455.7 ± 1.3 m/s; in data set [2] (303.15 K), 1435.9 ± 1.3 m/s; in data set [2] (308.15 K), 1416.1 ± 1.3 m/s; in data set [2] (313.15 K), 1396.5 ± 1.3 m/s; in data set [2] (318.15 K), 1376.9 ± 1.3 m/s. For the same compound, the mass density in data set [2] (298.15 K) was 936.279 ± 0.45 kg/m3; in data set [2] (303.15 K), 931.67 ± 0.45 kg/m3; in data set [2] (308.15 K), 927.058 ± 0.45 kg/m3; in data set [2] (313.15 K), 922.429 ± 0.45 kg/m3; in data set [2] (318.15 K), 917.793 ± 0.45 kg/m3.
Take `CC(=O)N(C)C` [N,N-dimethylethanamide] + O=S(=O)([O-])C(F)(F)F.O=S(=O)([O-])C(F)(F)F.[Mg+2]: the speed of sound in data set [2] (298.15 K) is recorded as 1455.9 ± 1.3 m/s; in data set [2] (303.15 K), 1436 ± 1.3 m/s; in data set [2] (308.15 K), 1416.2 ± 1.3 m/s; in data set [2] (313.15 K), 1396.5 ± 1.3 m/s; in data set [2] (318.15 K), 1376.9 ± 1.3 m/s. The mass density in data set [2] (298.15 K) is reported as 936.279 ± 0.46 kg/m3; in data set [2] (303.15 K) it was 931.67 ± 0.46 kg/m3; in data set [2] (308.15 K), 927.047 ± 0.46 kg/m3; in data set [2] (313.15 K), 922.416 ± 0.46 kg/m3; in data set [2] (318.15 K), 917.78 ± 0.46 kg/m3.
Turning to `CC(=O)N(C)C` [N,N-dimethylethanamide] + O=S(=O)([O-])C(F)(F)F.O=S(=O)([O-])C(F)(F)F.[Sr+2], the speed of sound in data set [2] (298.15 K) came out at 1455.9 ± 1.3 m/s; in data set [2] (303.15 K), 1435.9 ± 1.3 m/s; in data set [2] (308.15 K) it was 1416.1 ± 1.3 m/s; in data set [2] (313.15 K), 1396.5 ± 1.3 m/s; in data set [2] (318.15 K), 1376.9 ± 1.3 m/s. For the same compound, the mass density is 936.29 ± 0.52 kg/m3 in data set [2] (298.15 K); 931.679 ± 0.52 kg/m3 in data set [2] (303.15 K); 927.058 ± 0.52 kg/m3 in data set [2] (308.15 K); 922.423 ± 0.52 kg/m3 in data set [2] (313.15 K); 917.79 ± 0.52 kg/m3 in data set [2] (318.15 K).
With `CC(=O)N(C)C` [N,N-dimethylethanamide] + [Ba+2].[O-][Cl+3]([O-])([O-])[O-].[O-][Cl+3]([O-])([O-])[O-], the speed of sound in data set [2] (298.15 K) is 1455.9 ± 1.3 m/s; in data set [2] (303.15 K), 1436 ± 1.3 m/s; in data set [2] (308.15 K), 1416.2 ± 1.3 m/s; in data set [2] (313.15 K) it was 1396.5 ± 1.3 m/s; in data set [2] (318.15 K), 1376.9 ± 1.3 m/s. For the same compound, the mass density in data set [2] (298.15 K) is 936.277 ± 0.54 kg/m3; in data set [2] (303.15 K) it was 931.67 ± 0.54 kg/m3; in data set [2] (308.15 K), 927.058 ± 0.54 kg/m3; in data set [2] (313.15 K), 922.423 ± 0.54 kg/m3; in data set [2] (318.15 K), 917.79 ± 0.55 kg/m3.
For the compound `CN(C)C=O` [dimethylformamide], the speed of sound in data set [1] (298.15 K) amounted to 1457.2 ± 1.3 m/s; in data set [1] (303.15 K), 1437.9 ± 1.3 m/s; in data set [1] (308.15 K), 1418.5 ± 1.3 m/s; in data set [1] (313.15 K) it was 1399.3 ± 1.3 m/s; in data set [1] (318.15 K), 1380 ± 1.3 m/s. For the same compound, the mass density in data set [1] (298.15 K) stood at 943.913 ± 0.14 kg/m3; in data set [1] (303.15 K), 939.139 ± 0.14 kg/m3; in data set [1] (308.15 K), 934.354 ± 0.14 kg/m3; in data set [1] (313.15 K), 929.554 ± 0.14 kg/m3; in data set [1] (318.15 K), 924.744 ± 0.14 kg/m3.
As for `CN(C)C=O` [dimethylformamide] + O=S(=O)([O-])C(F)(F)F.O=S(=O)([O-])C(F)(F)F.[Ca+2], the speed of sound is listed as 1457.2 ± 1.3 m/s in data set [2] (298.15 K); 1437.9 ± 1.3 m/s in data set [2] (303.15 K); 1418.5 ± 1.3 m/s in data set [2] (308.15 K); 1399.2 ± 1.3 m/s in data set [2] (313.15 K); 1380 ± 1.3 m/s in data set [2] (318.15 K). The mass density in data set [2] (298.15 K) is on record as 943.915 ± 0.44 kg/m3; in data set [2] (303.15 K), 939.142 ± 0.44 kg/m3; in data set [2] (308.15 K), 934.356 ± 0.45 kg/m3; in data set [2] (313.15 K), 929.553 ± 0.45 kg/m3; in data set [2] (318.15 K), 924.746 ± 0.45 kg/m3.
As for `CN(C)C=O` [dimethylformamide] + O=S(=O)([O-])C(F)(F)F.O=S(=O)([O-])C(F)(F)F.[Mg+2], the speed of sound was determined as 1457.1 ± 1.3 m/s in data set [2] (298.15 K); 1437.9 ± 1.3 m/s in data set [2] (303.15 K); 1418.5 ± 1.3 m/s in data set [2] (308.15 K); 1399.2 ± 1.3 m/s in data set [2] (313.15 K); 1380 ± 1.3 m/s in data set [2] (318.15 K). The mass density in data set [2] (298.15 K) was 943.905 ± 0.43 kg/m3; in data set [2] (303.15 K), 939.125 ± 0.43 kg/m3; in data set [2] (308.15 K), 934.34 ± 0.43 kg/m3; in data set [2] (313.15 K), 929.543 ± 0.43 kg/m3; in data set [2] (318.15 K) it was 924.732 ± 0.43 kg/m3.
For the compound `CN(C)C=O` [dimethylformamide] + O=S(=O)([O-])C(F)(F)F.O=S(=O)([O-])C(F)(F)F.[Sr+2], the speed of sound in data set [2] (298.15 K) turned out to be 1457.2 ± 1.3 m/s; in data set [2] (303.15 K), 1438 ± 1.3 m/s; in data set [2] (308.15 K) it was 1418.6 ± 1.3 m/s; in data set [2] (313.15 K) it was 1399.3 ± 1.3 m/s; in data set [2] (318.15 K) it was 1380.1 ± 1.3 m/s. Further, the mass density in data set [2] (298.15 K) worked out at 943.913 ± 0.51 kg/m3; in data set [2] (303.15 K), 939.144 ± 0.51 kg/m3; in data set [2] (308.15 K) it was 934.36 ± 0.51 kg/m3; in data set [2] (313.15 K), 929.56 ± 0.51 kg/m3; in data set [2] (318.15 K) it was 924.748 ± 0.51 kg/m3.
For the compound `CN(C)C=O` [dimethylformamide] + [Ba+2].[O-][Cl+3]([O-])([O-])[O-].[O-][Cl+3]([O-])([O-])[O-], the speed of sound in data set [2] (298.15 K) is listed as 1457.2 ± 1.3 m/s; in data set [2] (303.15 K), 1437.8 ± 1.3 m/s; in data set [2] (308.15 K) it was 1418.5 ± 1.3 m/s; in data set [2] (313.15 K) it was 1399.2 ± 1.3 m/s; in data set [2] (318.15 K) it was 1380 ± 1.3 m/s. For the same compound, the mass density is given as 943.919 ± 0.54 kg/m3 in data set [2] (298.15 K); 939.144 ± 0.54 kg/m3 in data set [2] (303.15 K); 934.36 ± 0.55 kg/m3 in data set [2] (308.15 K); 929.56 ± 0.55 kg/m3 in data set [2] (313.15 K); 924.748 ± 0.55 kg/m3 in data set [2] (318.15 K).
